Earlier results, collected in patent US20110195946A1, “HIGH SOLID D[…]” (priority 2008, published 2011).

How the values were obtained:
[1] = acute oral mammalian toxicity
[2] = acute inhalation toxicity

Compound	LD50 [1]	LC50 (4 h) [2]
N#Cc1c(-c2ccc(Cl)cc2)[nH]c(C(F)(F)F)c1Br [Tralopyril, 4-bromo-2-(4-chlorophenyl)-5-(trifluoromethyl)-1H-pyrrole-3-carbonitrile]	28.7 mg/kg	–
[O-][n+]1ccccc1[S][Zn][S]c1cccc[n+]1[O-] [zinc pyrithione, bis(2-pyridylthio)zinc 1,1′ dioxide]	–	1.03 µg/mL
